Our source for the IC50 and melting point values is patent US20240066027A1 (DOMAIN THERAPEUTICS, priority 2020, published 2024).

One may read the IC50 as the point on the concentration scale where inhibition reaches its midpoint. Broadly, the melting point is the temperature, or range, at which the solid turns liquid.

Series [1] addresses T1, human PAR-2 (hPAR-2) receptor expressed in HEK-293 T cells in an endogenous manner (Homo sapiens, UniProt P55085).
T1 construct: human PAR-2 (hPAR-2) receptor expressed in HEK-293 T cells in an endogenous manner; endogenous in cells; host or cells: HEK-293 T cells
T1 sequence (P55085 26-397): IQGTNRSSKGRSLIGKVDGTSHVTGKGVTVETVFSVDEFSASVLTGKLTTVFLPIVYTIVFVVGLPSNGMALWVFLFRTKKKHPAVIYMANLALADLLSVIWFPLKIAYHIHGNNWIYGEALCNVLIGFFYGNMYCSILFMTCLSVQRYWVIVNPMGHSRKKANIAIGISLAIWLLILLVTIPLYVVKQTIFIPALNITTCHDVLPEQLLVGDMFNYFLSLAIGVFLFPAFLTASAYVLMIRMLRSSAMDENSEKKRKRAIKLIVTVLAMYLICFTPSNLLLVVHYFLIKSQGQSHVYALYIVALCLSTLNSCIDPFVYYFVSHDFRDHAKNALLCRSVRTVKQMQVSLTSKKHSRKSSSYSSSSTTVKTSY
Description: In vitro human PAR-2 functional antagonist activity using calcium assays (Fluo4AM, FLIPR Tetra). The series is classed as cell-based. The following applies: HEK-293 T cells stimulated by an EC80 of the 2-Furoyl-LIGRLO-NH2 peptide after 10 min incubation with compound; 20 concentrations, duplicate, two independent experiments. The method in brief: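 Fluo4AM-loaded HEK-293 T cells were exposed to compound for 10 min to read agonist effect. They were then stimulated with an EC80 of 2-Furoyl-LIGRLO-NH2 and intracellular calcium was recorded for 5 more min on FLIPR. Antagonism was scored against buffer basal and EC80 agonist-alone signals.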

A value given as a limit tells only on which side of the number the result lay.

`CC(C)Cc1nn(-c2ccc(OC(F)(F)F)cc2)c2ccc(C(=O)N3CCNC(=O)C3(C)C)nc12` [Example 79, 4-(3-isobutyl-1-(4-(trifluoromethoxy)phenyl)-1H-pyrazolo[4,3-b]pyridine-5-carbonyl)-3,3-dimethylpiperazin-2-one] came in with a melting point of 185 to 187 °C. For the same molecule, the half-maximal inhibitory concentration (IC50) in series [1] was in the range of 0.02 to 10 µM.
As for `COc1cc(-n2nc(C(C)(C)C)c3nc(C(=O)N4CCN(c5cc(C)c(C(=O)O)c(C)n5)CC4(C)C)ccc32)ccc1Cl` [Example 60, 6-(4-(3-(tert-butyl)-1-(4-chloro-3-methoxyphenyl)-1H-pyrazolo[4,3-b]pyridine-5-carbonyl)-3,3-dimethylpiperazin-1-yl)-2,4-dimethylnicotinic acid], the melting point was 127 to 139 °C. Moreover, the IC50 in series [1] is greater than 10 µM.
As to `CC(C)Cn1cc(-c2ccccc2)c2ccc(C(=O)N3CCNC(=O)C3(C)C)nc21` [Example 49, 4-(1-isobutyl-3-phenyl-pyrrolo[2,3-b]pyridine-6-carbonyl)-3,3-dimethyl-piperazin-2-one], the melting point lay within 175 to 178 °C. In addition, the IC50 in series [1] lay in the range of 0.02 to 10 µM.
The corresponding values for `COc1ccc(-n2nc(CC(C)C)c3nc(C(=O)N4CCNC(=O)C4(C)C)ccc32)cn1` [Example 92, 4-(3-isobutyl-1-(6-methoxypyridin-3-yl)-1H-pyrazolo[4,3-b]pyridine-5-carbonyl)-3,3-dimethylpiperazin-2-one] are 189 to 192 °C and greater than 10 µM.
The corresponding values for `CC(C)Cn1cc(C2=CCOCC2)c2ccc(C(=O)N3CCNC(=O)C3(C)C)nc21` [Example 45, 4-(3-(3,6-dihydro-2H-pyran-4-yl)-1-isobutyl-1H-pyrrolo[2,3-b]pyridine-6-carbonyl)-3,3-dimethylpiperazin-2-one] are 225 to 230 °C and greater than 10 µM.
The corresponding values for `CC(C)Cc1nn(-c2ccc(C(F)(F)F)nc2)c2ccc(C(=O)N3CCNC(=O)C3(C)C)nc12` [Example 66, 4-(3-isobutyl-1-(6-(trifluoromethyl)pyridin-3-yl)-1H-pyrazolo[4,3-b]pyridine-5-carbonyl)-3,3-dimethylpiperazin-2-one] are 185 to 190 °C and greater than 10 µM.
The molecule `CC(C)Cn1cc(-c2ccncc2)c2ccc(C(=O)N3CCNC(=O)C3(C)C)nc21` [Example 37, 4-(1-isobutyl-3-(pyridin-4-yl)-1H-pyrrolo[2,3-b]pyridine-6-carbonyl)-3,3-dimethylpiperazin-2-one] yielded a melting point of 200 to 210 °C. Also, the IC50 in series [1] is greater than 10 µM.
`O=C(c1cc2c(cn1)c(-c1ccc(Cl)c(F)c1)nn2CC(F)(F)F)N1CCCOCC1` [Example 89, (3-(4-chloro-3-fluorophenyl)-1-(2,2,2-trifluoroethyl)-1H-pyrazolo[4,3-c]pyridin-6-yl)(1,4-oxazepan-4-yl)methanone]: the melting point lay within 84 to 88 °C. The IC50 in series [1] is greater than 10 µM.
For `COc1ccc(-n2nc(CC(C)C)c3nc(C(=O)N4CCNC(=O)C4(C)C)ccc32)cc1` [Example 93, 4-(3-isobutyl-1-(4-methoxyphenyl)-1H-pyrazolo[4,3-b]pyridine-5-carbonyl)-3,3-dimethylpiperazin-2-one], the melting point was in the range of 182 to 185 °C. Also, in series [1], the half-inhibitory concentration (IC50) was greater than 10 µM.
For `CC(C)Cn1cc(-c2ccc(C#N)nc2)c2ccc(C(=O)N3CCNC(=O)C3(C)C)nc21` [Example 110, 5-(6-(2,2-dimethyl-3-oxopiperazine-1-carbonyl)-1-isobutyl-1H-pyrrolo[2,3-b]pyridin-3-yl)picolinonitrile] the same measures were 260 to 265 °C and 0.02 to 10 µM.
For `CC(C)Cn1cc(-c2cncnc2)c2ccc(C(=O)N3CCNC(=O)C3(C)C)nc21` [Example 36, 4-(1-isobutyl-3-(pyrimidin-5-yl)-1H-pyrrolo[2,3-b]pyridine-6-carbonyl)-3,3-dimethylpiperazin-2-one] the same measures were 185 to 190 °C and greater than 10 µM.
The corresponding values for `O=C(c1cc2c(cn1)c(-c1ccc(Cl)c(F)c1)nn2CC(F)(F)F)N1CC2CCC(C1)O2` [Example 90, (8-oxa-3-azabicyclo[3.2.1]octan-3-yl)(3-(4-chloro-3-fluorophenyl)-1-(2,2,2-trifluoroethyl)-1H-pyrazolo[4,3-c]pyridin-6-yl)methanone] are 198 to 200 °C and greater than 10 µM.
As to `CC(C)Cn1cc(C2=CCNCC2)c2ccc(C(=O)N3CCNC(=O)C3(C)C)nc21` [Example 47, 4-(3-(1,2,3,6-tetrahydropyridin-4-yl)-1-isobutyl-1H-pyrrolo[2,3-b]pyridine-6-carbonyl)-3,3-dimethylpiperazin-2-one], the melting point fell in the range of 140 to 145 °C. The concentration for half-maximal inhibition (IC50) in series [1] was greater than 10 µM.
The corresponding values for `CC(C)Cn1cc(N2CCCCC2)c2ccc(C(=O)N3CCNC(=O)C3(C)C)nc21` [Example 82, 4-(1-isobutyl-3-(piperidin-1-yl)-1H-pyrrolo[2,3-b]pyridine-6-carbonyl)-3,3-dimethylpiperazin-2-one] are 233 to 237 °C and 0.02 to 10 µM.
For `CC(C)Cn1cc(-c2cnn(C)c2)c2ccc(C(=O)N3CCNC(=O)C3(C)C)nc21` [Example 44, 4-(1-isobutyl-3-(1-methyl-1H-pyrazol-4-yl)-1H-pyrrolo[2,3-b]pyridine-6-carbonyl)-3,3-dimethylpiperazin-2-one], the melting point is greater than 250 °C. In addition, the IC50 in series [1] is greater than 10 µM.
Regarding `CC(C)Cn1cc(C2CCOCC2)c2ccc(C(=O)N3CCNC(=O)C3(C)C)nc21` [Example 46, 4-(1-isobutyl-3-(tetrahydro-2H-pyran-4-yl)-1H-pyrrolo[2,3-b]pyridine-6-carbonyl)-3,3-dimethylpiperazin-2-one], the melting point was greater than 250 °C. In series [1], the IC50 was greater than 10 µM.
